Laboratory results from the supplement of paper PMC4862054.

The molecules below were run on CAL-120 (assay: normalised viability (% of control), CellTiter-Blue; higher = more viable cells (about 100 = DMSO control)). Settings: 10 nM; incubation time: 72 h.
In short: (§1)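 Normalised viability is given for a single listed concentration of the series. In 384-well plates, breast cancer cell lines were incubated 72 h with compound, then read with CellTiter-Blue (2 h, 37 °C) at 560/590 nm. Per-plate scaling set vehicle to 100 and a positive kill control to 0, with Z'-factor quality control.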

| Compound | normalised viability [%] |
| --- | --- |
| CC(C)(C)c1cnc(CSc2cnc(NC(=O)C3CCNCC3)s2)o1 [SNS-032] | 84.1 |
| Cn1cnc2c(F)c(Nc3ccc(Br)cc3Cl)c(C(=O)NOCCO)cc21 [Selumetinib] | 78.8 |
| Nc1nc2[nH]cnc2c(=S)[nH]1 [Thioguanine] | 94.1 |

Same assay, conditions: 1000 nM; incubation time: 72 h

| Compound | normalised viability [%] |
| --- | --- |
| CC(C)(C)c1cnc(CSc2cnc(NC(=O)C3CCNCC3)s2)o1 [SNS-032] | 12.9 |
| Cn1cnc2c(F)c(Nc3ccc(Br)cc3Cl)c(C(=O)NOCCO)cc21 [Selumetinib] | 78.6 |
| Nc1nc2[nH]cnc2c(=S)[nH]1 [Thioguanine] | 67.2 |

Same assay, conditions: 10000 nM; incubation time: 72 h

| Compound | normalised viability [%] |
| --- | --- |
| CC(C)(C)c1cnc(CSc2cnc(NC(=O)C3CCNCC3)s2)o1 [SNS-032] | 11.8 |
| Cn1cnc2c(F)c(Nc3ccc(Br)cc3Cl)c(C(=O)NOCCO)cc21 [Selumetinib] | 63.3 |
| Nc1nc2[nH]cnc2c(=S)[nH]1 [Thioguanine] | 34.9 |

These molecules were tested on CAL-148 in the same assay as above. Settings: 3 nM; incubation time: 72 h.
In short: as §1

| Compound | normalised viability [%] |
| --- | --- |
| CC(C)(C)c1cnc(CSc2cnc(NC(=O)C3CCNCC3)s2)o1 [SNS-032] | 91.9 |
| Cn1cnc2c(F)c(Nc3ccc(Br)cc3Cl)c(C(=O)NOCCO)cc21 [Selumetinib] | 91 |
| Nc1nc2[nH]cnc2c(=S)[nH]1 [Thioguanine] | 105 |

Same assay, conditions: 30 nM; incubation time: 72 h

| Compound | normalised viability [%] |
| --- | --- |
| CC(C)(C)c1cnc(CSc2cnc(NC(=O)C3CCNCC3)s2)o1 [SNS-032] | 99.5 |
| Cn1cnc2c(F)c(Nc3ccc(Br)cc3Cl)c(C(=O)NOCCO)cc21 [Selumetinib] | 87.9 |
| Nc1nc2[nH]cnc2c(=S)[nH]1 [Thioguanine] | 116 |

Same assay, conditions: 100 nM; incubation time: 72 h

| Compound | normalised viability [%] |
| --- | --- |
| CC(C)(C)c1cnc(CSc2cnc(NC(=O)C3CCNCC3)s2)o1 [SNS-032] | 77.1 |
| Cn1cnc2c(F)c(Nc3ccc(Br)cc3Cl)c(C(=O)NOCCO)cc21 [Selumetinib] | 88.9 |
| Nc1nc2[nH]cnc2c(=S)[nH]1 [Thioguanine] | 102 |

What follows are molecules tested on CAL-51 in the same assay as above. Settings: 3 nM; incubation time: 72 h.
In short: as §1

| Compound | normalised viability [%] |
| --- | --- |
| CC(C)(C)c1cnc(CSc2cnc(NC(=O)C3CCNCC3)s2)o1 [SNS-032] | 113 |
| Cn1cnc2c(F)c(Nc3ccc(Br)cc3Cl)c(C(=O)NOCCO)cc21 [Selumetinib] | 116 |
| Nc1nc2[nH]cnc2c(=S)[nH]1 [Thioguanine] | 114 |

Same assay, conditions: 30 nM; incubation time: 72 h

| Compound | normalised viability [%] |
| --- | --- |
| CC(C)(C)c1cnc(CSc2cnc(NC(=O)C3CCNCC3)s2)o1 [SNS-032] | 107 |
| Cn1cnc2c(F)c(Nc3ccc(Br)cc3Cl)c(C(=O)NOCCO)cc21 [Selumetinib] | 102 |
| Nc1nc2[nH]cnc2c(=S)[nH]1 [Thioguanine] | 109 |

Same assay, conditions: 100 nM; incubation time: 72 h

| Compound | normalised viability [%] |
| --- | --- |
| CC(C)(C)c1cnc(CSc2cnc(NC(=O)C3CCNCC3)s2)o1 [SNS-032] | 107 |
| Cn1cnc2c(F)c(Nc3ccc(Br)cc3Cl)c(C(=O)NOCCO)cc21 [Selumetinib] | 96.3 |
| Nc1nc2[nH]cnc2c(=S)[nH]1 [Thioguanine] | 109 |

These molecules were tested on CAL-85-1 in the same assay as above. Settings: 3 nM; incubation time: 72 h.
In short: as §1

| Compound | normalised viability [%] |
| --- | --- |
| CC(C)(C)c1cnc(CSc2cnc(NC(=O)C3CCNCC3)s2)o1 [SNS-032] | 88.8 |
| Cn1cnc2c(F)c(Nc3ccc(Br)cc3Cl)c(C(=O)NOCCO)cc21 [Selumetinib] | 88.1 |
| Nc1nc2[nH]cnc2c(=S)[nH]1 [Thioguanine] | 111 |

Same assay, conditions: 30 nM; incubation time: 72 h

| Compound | normalised viability [%] |
| --- | --- |
| CC(C)(C)c1cnc(CSc2cnc(NC(=O)C3CCNCC3)s2)o1 [SNS-032] | 78.5 |
| Cn1cnc2c(F)c(Nc3ccc(Br)cc3Cl)c(C(=O)NOCCO)cc21 [Selumetinib] | 93.6 |
| Nc1nc2[nH]cnc2c(=S)[nH]1 [Thioguanine] | 97.4 |

Same assay, conditions: 100 nM; incubation time: 72 h

| Compound | normalised viability [%] |
| --- | --- |
| CC(C)(C)c1cnc(CSc2cnc(NC(=O)C3CCNCC3)s2)o1 [SNS-032] | 70.1 |
| Cn1cnc2c(F)c(Nc3ccc(Br)cc3Cl)c(C(=O)NOCCO)cc21 [Selumetinib] | 100 |
| Nc1nc2[nH]cnc2c(=S)[nH]1 [Thioguanine] | 104 |

The molecules below were run on HDQ-P1 in the same assay as above. Settings: 3 nM; incubation time: 72 h.
In short: as §1

| Compound | normalised viability [%] |
| --- | --- |
| CC(C)(C)c1cnc(CSc2cnc(NC(=O)C3CCNCC3)s2)o1 [SNS-032] | 113 |
| Cn1cnc2c(F)c(Nc3ccc(Br)cc3Cl)c(C(=O)NOCCO)cc21 [Selumetinib] | 92.4 |
| Nc1nc2[nH]cnc2c(=S)[nH]1 [Thioguanine] | 117 |

Same assay, conditions: 30 nM; incubation time: 72 h

| Compound | normalised viability [%] |
| --- | --- |
| CC(C)(C)c1cnc(CSc2cnc(NC(=O)C3CCNCC3)s2)o1 [SNS-032] | 93.5 |
| Cn1cnc2c(F)c(Nc3ccc(Br)cc3Cl)c(C(=O)NOCCO)cc21 [Selumetinib] | 107 |
| Nc1nc2[nH]cnc2c(=S)[nH]1 [Thioguanine] | 127 |

Same assay, conditions: 100 nM; incubation time: 72 h

| Compound | normalised viability [%] |
| --- | --- |
| CC(C)(C)c1cnc(CSc2cnc(NC(=O)C3CCNCC3)s2)o1 [SNS-032] | 63 |
| Cn1cnc2c(F)c(Nc3ccc(Br)cc3Cl)c(C(=O)NOCCO)cc21 [Selumetinib] | 92.6 |
| Nc1nc2[nH]cnc2c(=S)[nH]1 [Thioguanine] | 101 |

What follows are molecules tested on Hs578T in the same assay as above. Settings: 10 nM; incubation time: 72 h.
In short: as §1

| Compound | normalised viability [%] |
| --- | --- |
| CC(C)(C)c1cnc(CSc2cnc(NC(=O)C3CCNCC3)s2)o1 [SNS-032] | 104 |
| Cn1cnc2c(F)c(Nc3ccc(Br)cc3Cl)c(C(=O)NOCCO)cc21 [Selumetinib] | 90.8 |
| Nc1nc2[nH]cnc2c(=S)[nH]1 [Thioguanine] | 137 |

Same assay, conditions: 1000 nM; incubation time: 72 h

| Compound | normalised viability [%] |
| --- | --- |
| CC(C)(C)c1cnc(CSc2cnc(NC(=O)C3CCNCC3)s2)o1 [SNS-032] | 5.65 |
| Cn1cnc2c(F)c(Nc3ccc(Br)cc3Cl)c(C(=O)NOCCO)cc21 [Selumetinib] | 89.8 |
| Nc1nc2[nH]cnc2c(=S)[nH]1 [Thioguanine] | 96.4 |

Same assay, conditions: 10000 nM; incubation time: 72 h

| Compound | normalised viability [%] |
| --- | --- |
| CC(C)(C)c1cnc(CSc2cnc(NC(=O)C3CCNCC3)s2)o1 [SNS-032] | 4 |
| Cn1cnc2c(F)c(Nc3ccc(Br)cc3Cl)c(C(=O)NOCCO)cc21 [Selumetinib] | 76.2 |
| Nc1nc2[nH]cnc2c(=S)[nH]1 [Thioguanine] | 32.9 |

What follows are molecules tested on MDA-MB-231 in the same assay as above. Settings: 10 nM; incubation time: 72 h.
In short: as §1

| Compound | normalised viability [%] |
| --- | --- |
| CC(C)(C)c1cnc(CSc2cnc(NC(=O)C3CCNCC3)s2)o1 [SNS-032] | 106 |
| Cn1cnc2c(F)c(Nc3ccc(Br)cc3Cl)c(C(=O)NOCCO)cc21 [Selumetinib] | 90.3 |
| Nc1nc2[nH]cnc2c(=S)[nH]1 [Thioguanine] | 92.7 |

Same assay, conditions: 1000 nM; incubation time: 72 h

| Compound | normalised viability [%] |
| --- | --- |
| CC(C)(C)c1cnc(CSc2cnc(NC(=O)C3CCNCC3)s2)o1 [SNS-032] | 8.24 |
| Cn1cnc2c(F)c(Nc3ccc(Br)cc3Cl)c(C(=O)NOCCO)cc21 [Selumetinib] | 49.5 |
| Nc1nc2[nH]cnc2c(=S)[nH]1 [Thioguanine] | 58.4 |

Same assay, conditions: 10000 nM; incubation time: 72 h

| Compound | normalised viability [%] |
| --- | --- |
| CC(C)(C)c1cnc(CSc2cnc(NC(=O)C3CCNCC3)s2)o1 [SNS-032] | 7.03 |
| Cn1cnc2c(F)c(Nc3ccc(Br)cc3Cl)c(C(=O)NOCCO)cc21 [Selumetinib] | 30 |
| Nc1nc2[nH]cnc2c(=S)[nH]1 [Thioguanine] | 56 |

Each molecule was assayed on MDA-MB-453 in the same assay as above. Settings: 3 nM; incubation time: 72 h.
In short: as §1

| Compound | normalised viability [%] |
| --- | --- |
| CC(C)(C)c1cnc(CSc2cnc(NC(=O)C3CCNCC3)s2)o1 [SNS-032] | 118 |
| Cn1cnc2c(F)c(Nc3ccc(Br)cc3Cl)c(C(=O)NOCCO)cc21 [Selumetinib] | 122 |
| Nc1nc2[nH]cnc2c(=S)[nH]1 [Thioguanine] | 132 |

Same assay, conditions: 30 nM; incubation time: 72 h

| Compound | normalised viability [%] |
| --- | --- |
| CC(C)(C)c1cnc(CSc2cnc(NC(=O)C3CCNCC3)s2)o1 [SNS-032] | 92.7 |
| Cn1cnc2c(F)c(Nc3ccc(Br)cc3Cl)c(C(=O)NOCCO)cc21 [Selumetinib] | 105 |
| Nc1nc2[nH]cnc2c(=S)[nH]1 [Thioguanine] | 102 |

Same assay, conditions: 100 nM; incubation time: 72 h

| Compound | normalised viability [%] |
| --- | --- |
| CC(C)(C)c1cnc(CSc2cnc(NC(=O)C3CCNCC3)s2)o1 [SNS-032] | 70.8 |
